Tests used:
[1] = tested on: fibroblasts of the dermal tissue layer of three-dimensional cultured skin; assay: Cell proportion per cell cycle by flow cytometry (FCM), PI staining (Test Example 1); format: cell-based, human
Method: • (5) Of the obtained three-dimensional cultured skin, a dermal tissue layer composed of fibroblasts was separated and DNA-stained with propidium iodide (PI). Next, the proportion of fibroblasts for each cell cycle was analyzed by FCM using Cycle TEST PLUS DNA Reagent Kit (manufactured by BD).

[2] = tested on: ERK1/2 (Thr202/Tyr204 phosphorylated); assay: Western blotting of phosphorylated ERK1/2 in fibroblasts (Test Example 3-1); format: cell-based, human; settings: 0, 10, 100 mg/mL trehalose in medium, 24 hours
Method: (§1) The cells were further DNA-stained with PI and subjected to FCM, and the proportion of each cell cycle was examined.
(§2) (3) Furthermore, proteins were extracted from the fibroblasts obtained in (1) using RIPA buffer (1% protein inhibitor (manufactured by SIGMA)+Phosphatase Inhibitor cocktail (manufactured by SIGMA)). Then, 10 μg of protein per sample was separated by SDS-PAGE by a conventional method, transferred to a PVDF membrane, and then subjected to Western blotting. Phosphorylated ERK1/2 and phosphorylated AKT were detected by ECL Prime Western Blotting Detection Reagent (manufactured by GE Healthcare), using Phospho-p44/p42 MAPK (Erk1/2) (Thr202/Tyr204) (D13.14.4E) XP Rabbit mAb (#4300, Cell Signaling) and Phospho-Akt (Ser473) antibody (#9271, manufactured by Cell Signaling Technology) as a primary antibody, and an anti-rabbit IgG antibody and an anti-mouse IgG antibody manufactured by PROMEGA were used as secondary antibodies, and visualized by Image Quant LAS4010 (manufactured by GE Healthcare).

[3] = tested on: AKT (Ser473 phosphorylated); assay: Western blotting of phosphorylated AKT in fibroblasts (Test Example 3-1); format: cell-based, human; settings: 0, 10, 100 mg/mL trehalose in medium, 24 hours
Method: as §1, §2

[4] = tested on: FGF2 mRNA; assay: qPCR of FGF2 gene in monolayer fibroblasts (Test Example 3-2); format: cell-based, human; settings: for FGF2 expression level compared to control without trehalose (vehicle): after 3 hours of culture
Method: • (1) NHDF was seeded on a cell culture dish containing 1% FCS and 1% ABAM-containing DMEM medium containing 0, 30, and 100 mg/mL trehalose so as to be 5.5×10^4 cells/cm^2, and cultured for 3, 24, or 48 hours. • (2) Cells under each condition were collected, and mRNA was extracted using RNeasy Mini Kit (manufactured by QIAGEN). CDNA was prepared from mRNA using iScript cDNA Synthesis kit (manufactured by B10-RAD Laboratories). The method was performed according to each manual. Next, quantitative PCR (qPCR) of FGF2 gene was performed. For the reaction, Fast Start Universal Probe Master (Rox) (Roche) and StepOnePlue Real time PCR system were used. As a primer set, TaqMan probes for FGF2 (ThermoFisher Scientific) described in Table 5 were used. GAPDH was used as a reference gene. The number of samples used in each condition was 3.

[5] = tested on: EREG, ARG2, CCL2, IL1RN, PGF, SPP1, VEGFA, AREG and DPT mRNA; assay: qPCR of genes in monolayer fibroblasts, 24 hours (Test Example 3-3); format: cell-based, human; settings: 100 mg/mL trehalose (Treha 100)
Method: In the same manner as in Test Example 3-2, NHDF was cultured in 1% FCS and 1% ABAM-containing DMEM medium containing 0, 30, or 100 mg/mL trehalose or hyaluronic acid oligosaccharide 4mer (HA4) (product code 11006, manufactured by Cosmo Bio Co., Ltd.) for 24 hours, and RNA was recovered from the cells. Also, as a control, RNA was recovered from fibroblasts before treatment (0 h in FIG. 9). The obtained sample was subjected to the same operation as in Test Example 3-2, and qPCR for genes EREG, ARG2, CCL2, IL1RN, PGF, SPP1, VEGFA, AREG and DPT was performed. GAPDH was used as a reference gene.

[6] = tested on: EREG, ARG2, CCL2, IL1RN, PGF, SPP1, VEGFA, DPT and FGF2 mRNA; assay: qPCR of genes in fibroblasts in collagen gel, 3 days (Test Example 3-4); format: cell-based, human; settings: 100 mg/mL trehalose (Treha 100)
Method: A collagen gel containing NHDF was prepared according to the method (1) of Test Example 1. The obtained collagen gel was cultured in DMEM medium containing 0 or 100 mg/mL trehalose, 1% FCS and 1% ABAM for 3 days, and RNA was recovered from the cells. The obtained sample was subjected to the same operation as in Test Example 3-2, and qPCR for genes EREG, ARG2, CCL2, IL1RN, PGF, SPP1, VEGFA, DPT and FGF2 was performed. GAPDH was used as a reference gene.

[7] = tested on: human normal skin keratinocytes on collagen gel containing pretreated NHDF; assay: Three-dimensional cultured skin using fibroblasts pretreated with trehalose (Test Example 4); format: cell-based
Method: • (1) NHDF was seeded on a cell culture dish containing 10% FCS and 1% ABAM-containing DMEM medium at a cell density of 4.0×10^4 cells/cm^2. After 24 hours from seeding, at a cell density of 4.5×10^4 cells/cm^2, the medium was replaced with 1% FCS and 1% ABAM-containing DMEM medium containing 0, 30, or 100 mg/mL trehalose, and the cells were incubated at 37° C. for 24 hours. Then, a collagen gel containing 5.0×10^5 cells/ml of the obtained NHDF was prepared under the same conditions as in Test Example 1 except that trehalose was not added. • (2) According to the method of Test Example 1, the obtained NHDF-containing collagen gel was pre-cultured for 5 days, and then human normal skin keratinocytes were seeded and cultured for 2 days at 37° C. • (3) Further, according to the method of Test Example 1, gas-liquid interface culture was performed at 37° C. for 7 days using CM medium.

[8] = Trehalose concentration 100 mg/mL, n = 2, averages
[9] = 100 mg/mL trehalose, after 24 hours
[10] = 100 mg/mL trehalose, after 48 hours

OC[C@H]1O[C@H](O[C@H]2O[C@H](CO)[C@@H](O)[C@H](O)[C@H]2O)[C@H](O)[C@@H](O)[C@@H]1O [trehalose, α, α-trehalose]
proportions of fibroblasts in S phase and G2 phase ([1]; 100 mg/mL vs 0 mg/mL trehalose): significantly increased
Proportion of cells in cell cycle, G1 [1, 8]: 62.5%
Proportion of cells in cell cycle, G2 [1, 8]: 14.0%
Proportion of cells in cell cycle, S [1, 8]: 15.3%
phosphorylation of ERK1/2 [2]: promoted as the concentration of trehalose in the medium increases
phosphorylation of AKT [3]: promoted as the concentration of trehalose in the medium increases
FGF2 expression level compared to control without trehalose (vehicle) ([4]; 30 mg/mL trehalose): increase
expression level of FGF2 mRNA ([4]; 30 mg/mL trehalose, after 48 hours): slightly increased
FGF2 expression level compared to control without trehalose (vehicle) ([4]; 100 mg/mL trehalose): increase
FGF2 mRNA expression level compared to that at the start of the culture [4, 9]: still also increased
FGF2 mRNA expression level compared to the control [4, 9]: significantly increased
FGF2 mRNA expression level compared to that at the start of the culture [4, 10]: still also increased
FGF2 mRNA expression level compared to the control [4, 10]: significantly increased
mRNA expression levels of genes EREG, ARG2, CCL2, IL1RN, PGF, SPP1, VEGFA, AREG and DPT compared to vehicle [5]: remarkably increased
mRNA expression levels of genes EREG, ARG2, CCL2, ILIRN, PGF, SPP1, VEGFA, DPT and FGF2 compared to vehicle [6]: significantly increased
contraction of the collagen gel ([7]; fibroblast cells pre-cultured with trehalose): not observed
enlargement of three-dimensional cultured skin in diameter compared to pre-culturing with medium containing no trehalose ([7]; fibroblasts pre-cultured with 30 mg/mL trehalose for 24 hours before collagen gel preparation): about 1.4 times
area of three-dimensional cultured skin ([7]; fibroblasts pre-cultured with 100 mg/mL trehalose for 24 hours before collagen gel preparation): enlarged to cover the entire cell culture insert

— patent US20250270513A1, “METHOD FOR PRODUCING CULTURED TISSUE, AND PREPARATION FOR EXTERNAL APPLICATION” (National University Corporation Ehime University, priority 2019, published 2025)
